According to patent US20200289434A1, “RAPIDLY IMPROVING ENDOTHELIAL FUNCTION, REDUCING ARTERIAL STIFFNESS AND REVERSING CALCIFICATION OF BLOOD VESSELS BY ADMINISTERING VITAMIN K” (KAYDENCE PHARMA AS, priority 2019, published 2020):
“And” between values parts separate entries of the source, which are not always exact repeats. Equal entries are not always repeated.

What was measured:
[1] = mouse, in vivo
[2] = test system: thrombin generation in platelet-poor mice plasma; test: Example 3 second part: thrombin generation by calibrated automated thrombogram (CAT); assay type: in vivo; details: eight weeks, either dose
Method: Thrombin generation was measured in platelet-poor mice plasma using calibrated automated thrombography (CAT) technique as described in Hemker H C, Giesen P, Al Dieri R, Regnault V, de Smedt E, Wagenvoord R, et al. Calibrated automated thrombin generation measurement in clotting plasma. Pathophysiol Haemost Thromb 2003; 33:4-15. doi:71636. Thrombin generation was activated by mixing 21 μL of diluted plasma (1:1 with BSA5 buffer) with 7 pIL of fluorogenic substrate (Z-Gly-Gly-Arg-AMC, 16.6 mM) and 14 μL of trigger solution containing phospholipids, tissue factor and CaCl2) (4 μM, […] and 16.6 mM, respectively). In the calibration wells, the 14 μL of reagents were replaced with calibrator (102 nM). Immediately after the activation, 5 μL of the mixture was pipetted on paper disks in a flat bottom 96-well polystyrene plate and covered with 40 μL of mineral oil. Fluorescent signals were measured using the Fluoroskan Ascent software (Thermo Labsystems, Helsinki, Finland) and transformed into thrombin concentration as described in Hemker H C, Kremers R. Data management in Thrombin Generation. Thromb Res 2013; 131:3-11. doi:10.1016/j.thromres.2012.10.011. The parameters analyzed included endogenous thrombin potential (ETP), peak thrombin concentration (peak), and lag time.

ApoE/LDLR−/− mice [3] = test: Example 2: histological assessment of plaque size, composition and vessel wall area in BCA; assay type: in vivo; details: two months
Text: Plaque size and composition as well as vessel wall area (VWA) in BCA-Histological assessment, cross-section method, BCA cross-sections: total 13000 slides, Photographed: 1214 slides
For the determination of atherosclerotic plaque area and composition BCA was dissected, fixed in 4% buffered formalin and embedded in paraffin. 5 μm-thick serial sections of BCA were collected from proximal, middle and distal parts of artery. Originally developed staining with Unna's orcein combined with Martius, Scarlet and Blue trichrome (OMSB), was applied on every tenth section (50 μm interval between each section) for visualization of collagen, elastin, fibrin, red blood cells and vascular smooth muscle cells within atherosclerotic plaque. The areas of particular components of atherosclerotic plaque as well as artery lumen and wall were determined after Columbus-based software processing (FIG. 1B) using a previously developed algorithm [Gajda M, Jasztal A, Banasik T, Jasek-Gajda E, Chlopicki S. Combined orcein and martius scarlet blue (OMSB) staining for qualitative and quantitative analyses of atherosclerotic plaques in brachiocephalic arteries in apoE/LDLR−/− mice. Histochem Cell Biol 2017. doi:10.1007/s00418-017-1538-81.

ApoE/LDLR−/− mice [4] = test: Example 3 second part: nitrite and nitrate concentration in plasma; assay type: in vivo; details: eight weeks
ApoE/LDLR−/− mice [5] = test: Example 2: MRI-based assessment of NO-dependent vasodilatation in BCA and LCA after acetylcholine; assay type: in vivo; details: two months, 6-month old mice
Method: Endpoint assays: Magnetic resonance imaging (MRI)-based assessment of nitric oxide (NO)-dependent vasodilatation in brachiocephalic (BCA) and left common carotid artery (LCA) after acetylcholine (Ach) administration—by MRI 9.4T scanner, total time of measurements: 114 h (1.5 h per animal), acetylcholine (Ach, 16.6 mg/kg b.w.)
Studies were performed on 4-month old female ApoE/LDLR−/− mice, the model initially described by Ishibashi S, Herz J, Maeda N, Goldstein J, Brown M. The two-receptor model of lipoprotein clearance: tests of the hypothesis in “knockout” mice lacking the low density lipoprotein receptor, apolipoprotein E, or both proteins. Proc Natl Acad Sci USA 1994; 10:4431-5., and extensively characterized in previous studies, [see Kostogrys R B, Franczyk-Zarow M, Gasior-Glogowska M, Kus E, Jasztal A, Wrobel T P, et al. Anti-atherosclerotic effects of pravastatin in brachiocephalic artery in comparison with en face aorta and aortic roots in ApoE/LDLR−/− mice. Pharmacol Reports 2017; 69:112-8. doi:10.1016/j.pharep.2016.09.014; Tyrankiewicz U, Skorka T, Orzylowska A, Jablonska M, Jasinski K, Jasztal A, et al. Comprehensive MRI for the detection of subtle alterations in diastolic cardiac function in apoE/LDLR−/− mice with advanced atherosclerosis. NMR Biomed 2016; 29:833-40. doi:10.1002/nbm.3524; Mateuszuk L, Jasztal A, Maslak E, Gasior-Glogowska M, Baranska M, Sitek B, et al. Antiatherosclerotic Effects of 1-Methylnicotinamide in Apolipoprotein E/Low-Density Lipoprotein Receptor-Deficient Mice: A Comparison with Nicotinic Acid. J Pharmacol Exp Ther 2016; 356:514-24. doi:10.1124/jpet.115.228643; Wrobel T P, Marzec K M, Chlopicki S, Maślak E, Jasztal A, Franczyk-Żarów M, et al., Effects of Low Carbohydrate High Protein (LCHP) diet on atherosclerotic plaque phenotype in ApoE/LDLR−/− mice: FT-IR and Raman imaging. […] End-diastolic volumes of BCA and LCA were analyzed using ImageJ software (1.46r NIH Bethesda, Md., USA) and scripts written in Matlab (MathWorks, Natick, Mass., USA) (FIG. 1A).

Question: Which “vitamin K1 and K1 2,3-epoxide plasma concentration” value [1] does the source give for `CC(C)=CCC/C(C)=C/CC/C(C)=C/CC/C(C)=C/CC/C(C)=C/CC/C(C)=C/CC/C(C)=C/CC1=C(C)C(=O)c2ccccc2C1=O` [MK-7, menaquinone-7] here?
Answer: tent to decrease

Question: What about the “concentration of MK4 2,3-epoxide in plasma” value ([1]; 5 mg/kg/day) of the same compound?
Answer: maintained at similar level

Question: What about the “plasma concentration of K2 (MK-7)” value ([1]; 5 mg/kg/day) of the same compound?
Answer: dose-dependent increase

Question: And the “plasma concentration of MK-4” value ([1]; 5 mg/kg/day)?
Answer: dose-dependent increase

Question: What about the thrombin generation [2] of the same compound?
Answer: did not affect

Question: What about the “effect on plaque size” value (ApoE/LDLR−/− mice [3]; either low or high dose) of the same compound?
Answer: did not result in a beneficial effect

Question: What about the “plaque and lumen area expressed as percent of IWA” value (ApoE/LDLR−/− mice [3]; either low or high dose) of the same compound?
Answer: did not change

Question: And the “internal wall area (IWA)” value (ApoE/LDLR−/− mice [3]; lower dose, not visible for entire vessel)?
Answer: decreased only in the middle part of the vessel

Question: What about the “decrease in lipid core expressed as percent of plaque” value (ApoE/LDLR−/− mice [3]; similarly after low and high dose) of the same compound?
Answer: about 17%

Question: What about the “decrease in vessel wall area (VWA) of BCA” value (ApoE/LDLR−/− mice [3]; similarly for low (0.03) and high (10 mg/kg b.w./day) dose) of the same compound?
Answer: about 5%

Question: What about the “content of collagen in plaque” value (ApoE/LDLR−/− mice [3]; treated vs untreated groups) of the same compound?
Answer: lack of differences

Question: What about the “concentration of NO3− in plasma” value (ApoE/LDLR−/− mice [4]; 0.03 or 10 mg/kg b.w./day) of the same compound?
Answer: did not change significantly

Question: What about the “increase in NO2− concentration in plasma” value (ApoE/LDLR−/− mice [4]; high dose 10 mg/kg b.w./day) of the same compound?
Answer: ~42%

Question: What about the “increase in NO2− concentration in plasma” value (ApoE/LDLR−/− mice [4]; low dose 0.03 mg/kg b.w./day) of the same compound?
Answer: about 58%

Question: What about the “volume change of BCA after Ach injection” value (ApoE/LDLR−/− mice [5]; high dose 10 mg/kg b.w./day) of the same compound?
Answer: 3.12%

Question: And the “volume change of LCA after Ach injection” value (ApoE/LDLR−/− mice [5]; high dose 10 mg/kg b.w./day)?
Answer: 4.45%

Question: What about the “volume change of LCA after Ach injection” value (ApoE/LDLR−/− mice [5]; low dose 0.03 mg/kg b.w./day, listed as vitamin MK-7, 0.03 mg/kg/day) of the same compound?
Answer: ~−3% and −3.92%
